Measured values reported in ChEMBL document CHEMBL2034903, “Bis-spirolabdane diterpenoids from Leonotis nepetaefolia” (J Nat Prod, 2012).

Key:
[1] = biological target: T1, Muscarinic acetylcholine receptor M3 (Homo sapiens, UniProt P20309); assay: Displacement of [3H]QNB from human muscarinic M3 receptor at 10 uM
Target sequence in this assay (P20309 whole entry, looked up): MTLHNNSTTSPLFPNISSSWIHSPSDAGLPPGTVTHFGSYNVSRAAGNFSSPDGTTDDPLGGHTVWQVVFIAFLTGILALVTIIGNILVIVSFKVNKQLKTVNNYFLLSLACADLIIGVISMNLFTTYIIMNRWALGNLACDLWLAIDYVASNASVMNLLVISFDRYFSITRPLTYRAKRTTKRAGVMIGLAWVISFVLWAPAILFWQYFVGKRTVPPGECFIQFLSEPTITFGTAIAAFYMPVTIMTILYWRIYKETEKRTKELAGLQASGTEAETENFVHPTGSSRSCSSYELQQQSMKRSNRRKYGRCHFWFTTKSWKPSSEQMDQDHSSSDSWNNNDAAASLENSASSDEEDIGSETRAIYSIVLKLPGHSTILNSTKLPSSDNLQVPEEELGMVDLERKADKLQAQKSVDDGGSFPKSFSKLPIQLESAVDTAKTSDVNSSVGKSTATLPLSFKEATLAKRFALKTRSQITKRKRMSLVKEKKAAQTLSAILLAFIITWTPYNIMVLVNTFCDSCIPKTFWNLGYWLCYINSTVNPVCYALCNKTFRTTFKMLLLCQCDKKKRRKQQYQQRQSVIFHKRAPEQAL

[2] = biological target: T2, D(1B) dopamine receptor (Homo sapiens, UniProt P21918); assay: Displacement of [3H]SCH23390 from human dopamine D5 receptor at 10 uM
[3] = biological target: T1, Muscarinic acetylcholine receptor M3; assay: Binding affinity to human muscarinic M3 receptor
Target sequence in this assay (P20309 whole entry): as the sequence (P20309 whole entry, looked up) above

[4] = biological target: T2, D(1B) dopamine receptor; assay: Binding affinity to human dopamine D5 receptor
[5] = biological target: T3, Histamine H2 receptor (Homo sapiens, UniProt P25021); assay: Binding affinity to human histamine H2 receptor
[6] = biological target: T3, Histamine H2 receptor; conditions: 10 uM
Description: Inhibition of human histamine H2 receptor at 10 uM

T3 sequence (P25021 whole entry): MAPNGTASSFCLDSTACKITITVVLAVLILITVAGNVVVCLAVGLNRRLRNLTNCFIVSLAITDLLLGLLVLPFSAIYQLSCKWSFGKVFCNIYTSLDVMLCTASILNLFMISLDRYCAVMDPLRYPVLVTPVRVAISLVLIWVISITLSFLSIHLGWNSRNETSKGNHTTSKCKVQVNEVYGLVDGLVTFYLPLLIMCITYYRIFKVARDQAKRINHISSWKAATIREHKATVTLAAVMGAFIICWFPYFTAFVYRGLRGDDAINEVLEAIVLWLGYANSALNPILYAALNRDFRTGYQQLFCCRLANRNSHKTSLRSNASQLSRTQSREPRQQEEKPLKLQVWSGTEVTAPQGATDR
T2 sequence (P21918 whole entry): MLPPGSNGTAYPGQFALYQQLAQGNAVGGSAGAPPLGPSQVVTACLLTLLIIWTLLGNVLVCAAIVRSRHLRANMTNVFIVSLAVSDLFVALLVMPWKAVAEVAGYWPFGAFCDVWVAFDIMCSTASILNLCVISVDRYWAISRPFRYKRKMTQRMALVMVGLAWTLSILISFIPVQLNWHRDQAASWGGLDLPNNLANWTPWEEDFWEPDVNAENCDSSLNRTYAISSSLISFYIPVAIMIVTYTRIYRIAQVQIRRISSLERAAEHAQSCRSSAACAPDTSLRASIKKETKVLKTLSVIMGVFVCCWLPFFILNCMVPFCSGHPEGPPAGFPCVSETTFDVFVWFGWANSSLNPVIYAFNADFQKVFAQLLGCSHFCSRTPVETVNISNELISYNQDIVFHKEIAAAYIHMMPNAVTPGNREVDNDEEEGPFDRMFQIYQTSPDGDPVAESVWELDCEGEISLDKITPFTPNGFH

inhibition [1] | inhibition [2] | Ki [3] | Ki [4] | Ki [5] | inhibition [6] | Compound
> 50% | > 50% |  |  |  |  | C[C@@]12CCC[C@]3(C)C(=O)O[C@H](C[C@@]4(CO4)[C@]14CC[C@]1(COC(O)C1)O4)[C@H]23 (mixture of isomers)
 |  | > 10 µM | > 10 µM | > 10 µM | > 50% | C[C@@]12CCC[C@]3(C)C(=O)O[C@H](C[C@@]4(CO4)[C@]1(O)CCc1ccoc1)[C@H]23 [LEONOTININ]
> 50% |  |  |  |  |  | CO[C@H]1C[C@]2(CC[C@@]3(O2)[C@]2(CO2)C[C@@H](OC(C)=O)[C@@H]2[C@]34CCC[C@]2(C)C(=O)OC4)CO1
